From PubChem BioAssay (NCI)
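Where inhibition never reached the appropriate level, the endpoint shown equals the highest concentration tested. Otherwise, values were interpolated linearly from a five-concentration, 48-hour dose response in 96-well plates. GI50 marks 50% less growth. TGI: concentration producing complete growth inhibition.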

How the values were obtained:
Assay in all cases: NCI anticancer screen, dose series, 48 h
U251 CNS = tested on: U251 CNS
SNB-75 CNS = tested on: SNB-75 CNS
LOX IMVI melanoma = tested on: LOX IMVI melanoma
EKVX NSCLC = tested on: EKVX NSCLC
RPMI-8226 leukemia = tested on: RPMI-8226 leukemia
786-0 renal = tested on: 786-0 renal
UO-31 renal = tested on: UO-31 renal
TK-10 renal = tested on: TK-10 renal
T-47D breast = tested on: T-47D breast
HT29 colon = tested on: HT29 colon

Compound | GI50 (U251 CNS) | TGI (U251 CNS) | GI50 (SNB-75 CNS) | TGI (SNB-75 CNS) | GI50 (LOX IMVI melanoma) | TGI (LOX IMVI melanoma) | GI50 (EKVX NSCLC) | TGI (EKVX NSCLC) | GI50 (RPMI-8226 leukemia) | TGI (RPMI-8226 leukemia) | GI50 (786-0 renal) | TGI (786-0 renal) | GI50 (UO-31 renal) | TGI (UO-31 renal) | GI50 (TK-10 renal) | TGI (TK-10 renal) | GI50 (T-47D breast) [µM] | TGI (T-47D breast) [µM] | TGI (HT29 colon) [µM] | GI50 (HT29 colon) [µM]
C/C=C1/C(=C/c2[nH]c(/C=c3\[nH]/c(=C/C4=NC(=O)C(CC)=C4C)c(C)c3CCC(=O)O)c(CCC(=O)O)c2C)NC(=O)C1C (configuration not stated) | > 150 µg/mL | > 150 µg/mL | > 150 µg/mL | > 150 µg/mL | > 150 µg/mL | > 150 µg/mL | > 150 µg/mL | > 150 µg/mL | > 150 µg/mL | > 150 µg/mL | > 150 µg/mL | > 150 µg/mL | > 150 µg/mL | > 150 µg/mL | > 150 µg/mL | > 150 µg/mL | – | – | – | –
Cn1c2ccccc2c2c3[nH]c(=O)[nH]c(=O)c3c3c4ccccc4n(C)c3c21 | 3.02 µM | 13 µM | 1.49 µM | 3.27 µM | 2.13 µM | 11.9 µM | 2.54 µM | 47.2 µM | – | – | 1.88 µM | 4.34 µM | – | – | 1.91 µM | 16.5 µM | 2.05 | 27.1 | – | –
CS(=O)(=O)c1cc(=O)c2ccccc2s1 | – | 37.6 µM | – | 31 µM | – | 17.6 µM | – | 21.4 µM | – | – | – | 13 µM | – | 29.4 µM | – | 13.7 µM | – | 9.41 | 16.2 | –
COc1cc2c(c(OC)c1)C1(CC(CC#N)C2)SCCS1 (configuration not stated) | – | > 100 µM | – | > 100 µM | – | – | – | – | – | > 100 µM | – | > 100 µM | – | > 100 µM | – | > 100 µM | – | – | – | –
C=C1CC[C@@H]2[C@](C)(COC(C)=O)[C@H](OC(C)=O)CC[C@@]2(C)[C@@H]1CC(Nc1ccc(S(=O)(=O)Nc2ncccn2)cc1)C1=CCOC1=O (some centres not stated) | 1.74 µM | 3.28 µM | 1.27 µM | 3.23 µM | 0.891 µM | 2.21 µM | 8.18 µM | 20.6 µM | 0.541 µM | 3.12 µM | 1.77 µM | 3.39 µM | 1.51 µM | 2.97 µM | 2.77 µM | 6.03 µM | 2 | 5.46 | – | –
CCCS(=O)(=O)/C(=C(\c1ccc(Br)cc1)S(=O)(=O)CCC)c1ccc(Br)cc1 | – | > 10 µM | – | > 10 µM | – | > 10 µM | – | > 10 µM | – | > 10 µM | – | > 10 µM | – | > 10 µM | – | > 10 µM | – | – | > 10 | –
Cc1[nH]c2ccccc2c1C1Cc2ccccc2N1C(=O)/C(Cl)=C/c1ccccc1 (configuration not stated) | – | > 100 µM | – | 99.6 µM | – | > 100 µM | – | > 100 µM | – | > 100 µM | – | > 100 µM | – | > 100 µM | – | > 100 µM | – | – | > 100 | –
N#C/C(=C\c1cc2ccccc2c2ccccc12)c1ccccc1 | – | 36.8 µM | – | 10.9 µM | – | > 100 µM | – | 75.2 µM | – | > 51.1 µM | – | 18 µM | – | 57.7 µM | – | > 58.9 µM | – | – | 18.1 | –
COc1cccc(N2C(=O)[C@H]3CC(C)c4c([nH]c5ccccc45)[C@H]3C2=O)c1 (some centres not stated) | – | > 100 µM | – | 42.1 µM | – | > 100 µM | – | > 100 µM | – | > 100 µM | – | 50.5 µM | – | > 100 µM | – | > 100 µM | – | – | > 100 | –
O=C(/C(=C/c1cccc([N+](=O)[O-])c1)c1ccccc1)c1ccccc1 | 2.72 µM | 8.16 µM | 2.3 µM | 7.65 µM | – | – | – | – | 2.34 µM | 7.68 µM | 4.8 µM | 18.3 µM | 2.21 µM | 5.85 µM | 4.19 µM | 21.4 µM | 3.42 | 15.5 | 8.83 | 3.24
COC(=O)c1cc(C)c(C)c2c1NC(=O)CNC2=O | – | > 100 µM | – | > 100 µM | – | – | – | > 100 µM | – | > 100 µM | – | > 100 µM | – | 91.6 µM | – | – | – | – | > 100 | –
Fc1ccc(C2SCc3nc4ccccc4n32)cc1Cl (configuration not stated) | – | 44.6 µM | – | – | – | 40.3 µM | – | 92.8 µM | – | – | – | > 100 µM | – | 43.5 µM | – | 67.1 µM | – | – | > 100 | –
CCCCCCC(=O)C/C(=N/NC(N)=S)C(=O)NC1C2CC3CC(C2)CC1C3 (configuration not stated) | – | > 100 µM | – | > 100 µM | – | > 100 µM | – | > 100 µM | – | > 100 µM | – | > 100 µM | – | > 100 µM | – | > 100 µM | – | – | > 100 | –
Cc1ccc(-c2cc(=O)c3cc(C)c(C)c(C(=O)O)c3o2)cc1C | – | > 100 µM | – | > 100 µM | – | > 100 µM | – | > 100 µM | – | > 100 µM | – | > 100 µM | – | > 100 µM | – | > 100 µM | – | – | > 100 | –
Cc1nc2ccccc2c(=O)n1-c1ccccc1F | – | > 100 µM | – | > 100 µM | – | > 100 µM | – | > 100 µM | – | – | – | > 100 µM | – | > 100 µM | – | > 100 µM | – | – | > 100 | –
CCCCOC(=O)NC(=O)c1cn(C2CCCCC2)c(=O)[nH]c1=O | – | 76.1 µM | – | – | – | > 100 µM | – | > 100 µM | – | > 100 µM | – | 40.1 µM | – | 46.2 µM | – | > 100 µM | – | – | > 100 | –
COC(=O)c1c(C)[nH]c(/C=C2\N=C(c3ccc[nH]3)C=C2OC)c1C | 0.117 µM | 2.49 µM | 0.399 µM | 3.24 µM | – | – | 1.07 µM | 3.28 µM | 0.856 µM | 4.98 µM | 0.262 µM | 1.4 µM | 0.113 µM | 0.28 µM | 0.141 µM | 4.03 µM | 0.816 | 3.99 | > 100 | 0.0339
C/C(=C1/CCC/C(=C(/C)c2ccccc2)C1=O)c1ccccc1 | – | 74.2 µM | – | > 100 µM | – | > 100 µM | – | > 100 µM | – | > 100 µM | – | > 100 µM | – | > 100 µM | – | > 100 µM | – | – | 86.8 | –
CC(C)N1CN(C(C(=O)N[C@@H]2C(=O)N3C2SC(C)(C)C3C(=O)O)c2ccccc2)CSC1=S (some centres not stated) | – | > 100 µM | – | > 100 µM | – | > 100 µM | – | > 100 µM | – | > 100 µM | – | > 100 µM | – | > 100 µM | – | > 100 µM | – | – | > 100 | –
COc1ccc(/C=C\c2cc(OC)c(OC)c(OC)c2)cc1OC(=O)NCCN(C)C | – | – | – | 32.8 µM | – | > 100 µM | – | > 58.7 µM | – | – | – | > 34.8 µM | – | > 63.2 µM | > 47 µM | > 100 µM | – | – | 19.9 | 0.348
O=C(Nc1ccc(Cl)cc1Cl)C(=O)C(C(=O)c1ccncc1)C1OC(=O)c2ccccc21 (configuration not stated) | – | > 100 µM | – | > 100 µM | – | > 100 µM | – | > 100 µM | – | > 100 µM | – | > 100 µM | – | > 100 µM | – | > 100 µM | – | – | > 100 | –
